Results published in patent publication US7135581B2, “Antiangiogenic agents” (Entremed, Inc., priority 2000, dated 2006).
Where two headings read alike, the source gives them in different places. Each block holds one compound with its values, some of them ahead of it.

What was measured:
[1] = tested on: HUVEC and MDA-MB-231 cells; assay: in vitro antiproliferative screening, endothelial versus tumor cells; assay type: cell-based, human; conditions: for difference between inhibition of tumor cells and of endothelial cell proliferation (selectivity): MDA-MB-231 versus HUVEC; for antiproliferative activity in vitro (in words): cell line not specified
Excerpt: Compounds with no chain or with variable methylene chain lengths (1–4) were synthesized by replacing hydroxyl group at position-17 of D-ring of 2ME2 to block estrone formation or glucuronation. Similarly several analogs of 17-deoxyestrone with modification at position-2 were synthesized to block the both glucuronation and hydrolysis of the methoxy group to the hydroxyl. For these analogs data will be presented on the synthesis and preliminary in vitro screening in human umbilical vein endothelial cells (HUVEC) and breast cancer tumor MDA-MB-231 cells for antiproliferative activity, and in MCF-7 tumor cancer cells for estrogenic activity.
(§1) In order to assess the biological activity of modifications at position 16, the anti-proliferative activity of these analogs was evaluated on human umbilical vein endothelial cells (HUVEC) and breast carcinoma cell line, MDA-MB-231 as models for the anti-angiogenic and anti-tumor activity, respectively.

[2] = tested on: MDA-MB-231 human breast carcinoma cells; assay: MDA-MB-231 in vitro cellular proliferation inhibition (BrdU); assay type: cell-based
Protocol: MDA-MB-231 human breast carcinoma cells were grown in DMEM containing 10% FCS (Hyclone Laboratories, Logan Utah) and supplemented with 2 mM L-Glutamine, 100 units/ml penicillin, 100 μg/ml streptomycin (Irvine Scientific, Santa Anna, Calif.).
MDA-MB-231 cells were plated at 5000 cells/ml in 96-well plates. After allowing the cells to attach overnight, the appropriate fresh media were applied containing differing concentrations of 2-ME2 or derivatives thereof, as described below. Drug was dissolved in DMSO (Sigma, St. Louis, Mo.) and added to the wells in a volume of 200 μl. Cells were incubated for two days at 37° C.; at 32 h BrdU was added. BrdU cell proliferation assay (a nucleotide analogue that is incorporated into DNA) was performed as described by the manufacturer (Roche). Each condition was prepared in triplicate and the experiments were carried out a minimum of two times. Results presented are means +/− SE.

HUVEC cells = assay: HUVEC in vitro cellular proliferation inhibition (BrdU, bFGF); assay type: cell-based, human
Protocol: HUVEC cells were grown in EGM (Clonetics).
HUVEC cells were plated at 5000 cells/ml in 96-well plates. After allowing the cells to attach overnight, the cells were washed with PBS and incubated in the absence of growth factor for 24 h (EBM, 2% FCS, Clonetics). Cells were treated with increasing concentrations of drug in EBM containing 2% FCS and 10 ng/ml bFGF for 48 h at 37° C. Drug preparation, volumes added and BrdU proliferation assay were performed as indicated above.
as §1, with “2-Methoxyestradiol is a potent anti-angiogenic and anti-tumor agent. In” for “In”

[3] = tested on: vascular endothelial cell proliferation; conditions: cited from earlier work
[4] = tested on: chick embryo chorioallantoic membrane; assay: chick embryo chorioallantoic membrane (CAM) assay; assay type: in vivo; conditions: 100 μg disk, after 48 hours
Protocol: Anti-proliferative activity is evaluated in situ by testing the ability of an improved estradiol derivative to inhibit the proliferation of new blood vessel cells (angiogenesis). A suitable assay is the chick embryo chorioallantoic membrane (CAM) assay described by Crum et al. Science 230:1375 (1985). See also, U.S. Pat. No. 5,001,116, hereby incorporated by reference, which describes the CAM assay. Briefly, fertilized chick embryos are removed from their shell on day 3 or 4, and a methylcellulose disc containing the drug is implanted on the chorioallantoic membrane. The embryos are examined 48 hours later and, if a clear avascular zone appears around the methylcellulose disc, the diameter of that zone is measured.

MCF7 cells = assay: MCF7 estrogen-dependent proliferation assay (cell counting); assay type: cell-based; conditions: for MCF7 Fold stimulation: estrogen-dependent proliferation
Protocol: MCF7 cells, an estrogen dependent breast carcinoma cell line, were maintained in DMEM/F12 (1:1) containing 10% (v/v) fetal bovine serum (Hyclone Laboratories, Logan, Utah) and 1×antibiotic-antimytotic. MCF7 cells were used between passage 60 and passage 90. For MCF7 estrogen-dependent proliferation assay the cells were seeded in complete media at 20–30,000 cells/well in a 24 well plate. After allowing the cells to adhere overnight the seeding density was determined by cell counts. Cells were washed with PBS (37° C.) and starved by placing them in IMEM-phenol red free media containing 2% charcoal-dextran fetal bovine-stripped serum (Georgetown University) and 1×antibiotic-antimitotic. After 3 days of starvation, cells were treated with or without increasing concentrations of compounds, replacing the media every 2–3 days and counted after 8 or 10 days of treatment. Proliferation was measured by cell counting using a Coulter Z1 cell counter (Coulter Corporation, Hialeah, Fla.). Each condition was done in triplicate.

[5] = Homo sapiens, MDA-MB-231, Table 2, 2 substituted E2 derivatives, read-out: MDA-MB-231 (IC50 μM)
[6] = Homo sapiens, HUVEC, Table 2, 2 substituted E2 derivatives
[7] = Table 4, dehydrogenated/substituted 2ME2 derivatives, read-out: MDA-MB-231 (IC50 μM)
[8] = Table 4, dehydrogenated/substituted 2ME2 derivatives

Compound: 16β-(hydroxymethyl)estra-1,3,5(10)-triene-3,17β-diol [Table 3, Entry 6]
- difference between inhibition of tumor cells and of endothelial cell proliferation (selectivity) [1]: 10 fold

Compound: C[C@]12CC[C@@H]3c4cc(C=O)c(O)cc4CC[C@H]3[C@@H]1CC[C@@H]2O [Table 2, Entry 3, 2-formylestra-1,3,5(10)-triene-3,17β-diol]
- activity in breast tumor MDA-MB-231 cells (in words) [2]: poor activity

Compound: CCC[C@@H]1C[C@H]2[C@@H]3CCc4cc(O)c(OC)cc4[C@H]3CC[C@]2(C)[C@H]1O [Table 3, Entry 7, 2-methoxy-16α-propaneestra-1,3,5(10)-triene-3,17β-diol]
- antiproliferative activity in HUVEC / endothelial cells (in words) (HUVEC cells): good activity
- difference between inhibition of tumor cells and of endothelial cell proliferation (selectivity) [1]: more than ten-fold less active

Compound: CC[C@H]1CC[C@H]2[C@@H]3CCc4cc(O)c(OC)cc4[C@H]3CC[C@]12C [Table 1, Entry 13, 2-methoxy-17β-ethylestra-1,3,5(10)-triene-3-ol]
- antiproliferative activity in vitro (in words) [1]: equal or better antiproliferative activity than 2ME2

Compound: COc1cc2c(cc1O)CC[C@@H]1[C@@H]2CC[C@]2(C)[C@@H](O)[C@@H](C)C[C@@H]12 [Table 3, Entry 3, 2-methoxy-16β-methylestra-1,3,5(10)-triene-3,17β-diol]
- drop in activity in MDA-MB-231 compared to 2-methoxyestradiol [2]: about 5 fold

Compound: C[C@]12CC[C@@H]3c4cc(N=[N+]=[N-])c(O)cc4CC[C@H]3[C@@H]1CC[C@@H]2O [Table 2, Entry 17, 2-Azidoestra1,3,5(10)-triene-3,17β-diol]
- IC50 ([2]; Homo sapiens, MDA-MB-231, read-out: MDA-MB-231 (IC50 μM)): 13.3 µM
- antiproliferative activity in vitro (in words) [1]: retained considerable antiproliferative activity

Compound: COc1cc2c(cc1O)CC[C@@H]1[C@@H]2CC[C@]2(C)[C@@H](O)[C@H](C)C[C@@H]12 [Table 3, Entry 2, 2-methoxy-16α-methylestra-1,3,5(10)-triene-3,17β-diol]
- activity in MDA-MB-231 compared to 2-methoxyestradiol (in words) [2]: better activity than 2-methoxyestradiol

Compound: COc1cc2c(cc1O)CC[C@@H]1[C@@H]2CC[C@]2(C)[C@@H](C)CC[C@@H]12 [Table 1, Entry 8, 2-methoxy-17β-methylestra-1,3,5(10)-triene-3-ol]
- antiproliferative activity in vitro (in words) [1]: equal or better antiproliferative activity than 2ME2

Compound: CCC1C[C@H]2[C@@H]3CCc4cc(O)c(OC)cc4[C@H]3CC[C@]2(C)[C@H]1O (stereo partly drawn) [Table 3, Entry 4, 2-methoxy-16-ethylestra-1,3,5,(10)-triene-3,17β-diol]
- drop in activity in MDA-MB-231 compared to 2-methoxyestradiol [2]: ~3 fold
- inhibition of HUVEC cell proliferation compared to 2-methoxyestradiol (in words) (HUVEC cells): about equipotent to 2-methoxyestradiol

Compound: COc1cc2c(cc1O)CC[C@@H]1[C@@H]2CC[C@]2(C)CCC[C@@H]12 [Table 1, Entry 3, 2-methoxyestra-1,3,5(10)-triene-3-ol]
- antiproliferative activity in vitro (in words) ([1]; listed as 2-Methoxy-17-deoxyestrone): equal or better antiproliferative activity than 2ME2
- antiproliferative activity in vitro (in words) ([1]; listed as dehydroxy derivative): in vitro profile analogous to 2-methoxyestradiol

Compound: CO[C@@H]1[C@H](OC(=O)NC(=O)CCl)CC[C@]2(CO2)[C@H]1[C@@]1(C)O[C@@H]1CC=C(C)C [AGM-1470]
- half-maximal inhibition of vascular endothelial cell proliferation at lower concentration than tumor cell proliferation [3]: 4 logs

Compound: C[C@@]12CCC[C@H]1[C@@H]1CCc3cc(O)ccc3[C@H]1CC2 [Table 2, Entry 19, estra-1,3,5(10)-triene-3-ol]
- IC50 [2, 5]: 33.9 µM
- IC50 (HUVEC cells; [6]): 8.66 µM

Compound: COc1cc2c(cc1OC(C)=O)CCC1C2CC[C@@]2(C)C1CC[C@@H]2OC(C)=O (stereo partly drawn) [Entry 6]
- IC50 ([2]; Homo sapiens, MDA-MB-231, Table 1, 17 substituted 2ME2 derivatives, means +/− SE, read-out: MDA-MB-231 (IC50 μM)): 0.59 ± 0.15 µM
- IC50 (HUVEC cells; Homo sapiens, HUVEC, Table 1, 17 substituted 2ME2 derivatives): 3.6 ± 2 µM

- IC50 ([2]; Table 1, 17 substituted 2ME2 derivatives, means +/− SE, read-out: MDA-MB-231 (IC50 μM)): 0.5 ± 0.05 µM
- IC50 ([2]; Table 2, 2 substituted E2 derivatives, read-out: MDA-MB-231 (IC50 μM)): 0.5 µM
- IC50 ([2]; Table 3, 16 substituted 2ME2 derivatives, read-out: MDA-MB-231 (IC50 μM)): 0.5 ± 0.05 µM
- IC50 [2, 7]: 0.5 ± 0.05 µM
Compound: COc1cc2c(cc1O)CC[C@@H]1[C@@H]2CC[C@]2(C)[C@@H](O)CC[C@@H]12 [2-Methoxyestradiol, reference compound]
- IC50 (HUVEC cells; Table 1, 17 substituted 2ME2 derivatives): 0.66 ± 0.02 µM
- IC50 (HUVEC cells; Table 2, 2 substituted E2 derivatives): 0.66 µM
- IC50 (HUVEC cells; Table 3, 16 substituted 2ME2 derivatives): 0.66 ± 0.02 µM
- IC50 (HUVEC cells; [8]): 0.66 ± 0.02 µM
- inhibition of cell mitosis and growth of new blood vessels [4]: inhibit cell mitosis and the growth of new blood vessels
- estrogenic activity, proliferation in estrogen dependant MCF-7 cells (in words) (MCF7 cells): not estrogenic over a wide range of concentrations
- MCF7 Fold stimulation (MCF7 cells; Table 1): 1.75
- MCF7 Fold stimulation (MCF7 cells; Table 2): 1.75
- MCF7 Fold stimulation (MCF7 cells; Table 3): 1.75

Compound: CCOc1cc2c(cc1O)CC[C@@H]1[C@@H]2CC[C@]2(C)[C@@H](O)CC[C@@H]12 [Table 2, Entry 18, 2-ethoxyestra-1,3,5(10)-triene3,17β-diol]
- IC50 [2, 5]: 0.179 µM
- IC50 (HUVEC cells; [6]): 0.06 µM

Compound: CC(=O)c1cc2c(cc1O)CC[C@@H]1[C@@H]2CC[C@]2(C)[C@@H](O)CC[C@@H]12 [Table 2, Entry 2, 2-acetylestra-1,3,5(10)-triene-3,17β-diol]
- activity in breast tumor MDA-MB-231 cells (in words) [2]: good activity
- antiproliferative activity in HUVEC / endothelial cells (in words) (HUVEC cells): poor activity

Compound: COc1cc2c(cc1O)CC[C@@H]1C2=CC[C@]2(C)[C@@H](O)CC[C@@H]12 [2-methoxy-estra-1,3,5(10)9(11)-tetraene-3,17β-diol]
- IC50 [2, 7]: 0.45 µM
- IC50 (HUVEC cells; [8]): 0.25 µM

Compound: C[C@]12CC[C@@H]3c4cc(CO)c(O)cc4CC[C@H]3[C@@H]1CC[C@@H]2O [Table 2, Entry 4, 2-(hydroxymethyl)estra-1,3,5(10)-triene-3,17β-diol]
- activity in breast tumor MDA-MB-231 cells (in words) [2]: poor activity
